These results are taken from patent US20230017045A1, “PYRIDINE AND PYRIMIDINE CARBOXYLATE HERBICIDES AND METHODS OF USE THEREOF” (Dow AgroSciences LLC, priority 2017, published 2023).

Where two headings read alike, the source gives them in different places.

The subject of the experiment is test plant species. As to the kind of experiment: Post-emergent herbicidal activity test (greenhouse, foliar spray, visual growth reduction). It is filed as in vivo. Particulars: post-emergence, 336 h, 140 g ai/ha. Summed up: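 Greenhouse plants at first–second true leaf stage sprayed overhead at 187 L/ha with compound in acetone/water/isopropanol/DMSO/crop oil/X-77 carrier; controls received solvent blank. Injury rated visually after 14 d on a 0–100% scale versus untreated and control plants, converted to growth reduction.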

The mark [1] stands for this setting: ECHCG: barnyardgrass (Echinochloa crus-galli), 14 days after application, read-out: Visual Growth Reduction (%) 14 Days After Application, ECHCG.
[2] abbreviates: IPOHE: ivy-leaf morning glory (Ipomoea hederacea), 14 days after application, read-out: Visual Growth Reduction (%) 14 Days After Application, IPOHE.
Where [3] appears, read: KCHSC: kochia (Bassia scoparia), 14 days after application, read-out: Visual Growth Reduction (%) 14 Days After Application, KCHSC.
The mark [4] stands for this setting: ORYSA: rice (Oryza sativa), 14 days after application, read-out: Visual Growth Reduction (%) 14 Days After Application, ORYSA.
Where [5] appears, read: SETFA: giant foxtail (Setaria faberi), 14 days after application, read-out: Visual Growth Reduction (%) 14 Days After Application, SETFA.
The mark [6] stands for this setting: SORVU: grain sorghum (Sorghum vulgare), 14 days after application, read-out: Visual Growth Reduction (%) 14 Days After Application, SORVU.
[7] abbreviates: STEME: common chickweed (Stellaria media), 14 days after application, read-out: Visual Growth Reduction (%) 14 Days After Application, STEME.
The mark [8] stands for this setting: TRZAS: wheat, spring (Triticum aestivum), 14 days after application, read-out: Visual Growth Reduction (%) 14 Days After Application, TRZAS.
Where [9] appears, read: blackgrass (Alopecurus myosuroides), 14 Days After Application, read-out: Visual Growth Reduction (%) ALOMY.
Where [10] appears, read: canada thistle (Cirsium arvense), 14 Days After Application, read-out: Visual Growth Reduction (%) CIRAR.
Setting [11] is: crabgrass (Digitaria sanguinalis), 14 Days After Application, read-out: Visual Growth Reduction (%) DIGSA.
Where [12] appears, read: lambsquarters (Chenopodium album), 14 Days After Application, read-out: Visual Growth Reduction (%) CHEAL.
[13] abbreviates: redroot pigweed (Amaranthus retroflexus), 14 Days After Application, read-out: Visual Growth Reduction (%) AMARE.
The mark [14] stands for this setting: wild oat (Avena fatua), 14 Days After Application, read-out: Visual Growth Reduction (%) AVEFA.
Where [15] appears, read: yellow nutsedge (Cyperus esculentus), 14 Days After Application, read-out: Visual Growth Reduction (%) CYPES.

As for `COC(=O)c1nc(-c2ccc(F)cc2)c(F)cc1Cl` [F227, Methyl 3-chloro-5-fluoro-6-(4-fluorophenyl) picolinate], the pest or weed control at 140 g/ha is 0 to 29% under setting [1]; 60 to 74% under setting [2]; 0 to 29% under setting [3]; 0 to 29% under setting [4]; 0 to 29% under setting [5]; 60 to 74% under setting [6]. Moreover, the pest or weed control at 140 g/ha was 0 to 29% under setting [7]; 0 to 29% under setting [8]; 0 to 29% under setting [9]; 30 to 44% under setting [10]; 30 to 44% under setting [11]; 75 to 84% under setting [12]. For the same compound, the pest or weed control at 140 g/ha under setting [13] lay in the range of 0 to 29%, the pest or weed control at 140 g/ha under setting [14] was in the range of 0 to 29% and the pest or weed control at 140 g/ha under setting [15] lay in the range of 0 to 29%.

Turning to `COC(=O)c1nc(-c2c(C=O)cc(OC)c(O)c2Cl)ccc1Cl` [F228, Methyl 3-chloro-6-(2-chloro-6-formyl-3-hydroxy-4-methoxyphenyl) picolinate], the pest or weed control at 140 g/ha runs as follows: under setting [1], 0 to 29%; under setting [2], 0 to 29%; under setting [3], 0 to 29%; under setting [4], 0 to 29%; under setting [5], 0 to 29%; under setting [6], 0 to 29%. For the same compound, the pest or weed control at 140 g/ha is, setting by setting: under setting [7], 0 to 29%; under setting [8], 0 to 29%; under setting [9], 0 to 29%; under setting [10], 0 to 29%; under setting [11], 0 to 29%; under setting [12], 0 to 29%. Also, the pest or weed control at 140 g/ha under setting [13] was 0 to 29%, the pest or weed control at 140 g/ha under setting [14] was 0 to 29% and the pest or weed control at 140 g/ha under setting [15] lay within 0 to 29%.

In the case of `COC(=O)c1nc(-c2ccc3c(c2F)OC(F)(F)O3)c(F)cc1Cl` [F229, Methyl 3-chloro-5-fluoro-6-(2,2,4-trifluorobenzo[d][1,3]dioxol-5-yl)picolinate], the pest or weed control at 140 g/ha runs as follows: under setting [1], 85 to 94%; under setting [2], 95 to 100%; under setting [3], 95 to 100%; under setting [4], 0 to 29%; under setting [5], 85 to 94%; under setting [6], 95 to 100%. In addition, the pest or weed control at 140 g/ha fell in the range of 45 to 59% under setting [7]; 85 to 94% under setting [8]; 85 to 94% under setting [9]; 95 to 100% under setting [10]; 95 to 100% under setting [11]; 95 to 100% under setting [12]. Besides, the pest or weed control at 140 g/ha fell in the range of 95 to 100% under setting [13], 95 to 100% under setting [14] and 45 to 59% under setting [15].

For the compound `COc1c(-c2nc(C(=O)O)c(Cl)cc2F)ccc(C(F)F)c1F` [F230, 3-Chloro-6-(4-(difluoromethyl)-3-fluoro-2-methoxyphenyl)-5-fluoropicolinic acid], the pest or weed control at 140 g/ha under setting [1] was in the range of 60 to 74%; the pest or weed control at 140 g/ha under setting [2] lay within 95 to 100%; the pest or weed control at 140 g/ha under setting [3] lay in the range of 95 to 100%; the pest or weed control at 140 g/ha under setting [4] fell in the range of 0 to 29%; the pest or weed control at 140 g/ha under setting [5] is 30 to 44%; the pest or weed control at 140 g/ha under setting [6] fell in the range of 60 to 74%. Moreover, the pest or weed control at 140 g/ha is, setting by setting: under setting [7], 0 to 29%; under setting [8], 0 to 29%; under setting [9], 0 to 29%; under setting [10], 95 to 100%; under setting [11], 0 to 29%; under setting [12], 95 to 100%. Also, the pest or weed control at 140 g/ha is, setting by setting: under setting [13], 95 to 100%; under setting [14], 0 to 29%; under setting [15], 0 to 29%.

`COC(=O)c1nc(-c2cc(OC)c3c(c2)OCO3)c(F)cc1Cl` [F231, Methyl 3-chloro-5-fluoro-6-(7-methoxybenzo[d] [1,3]dioxol-5-yl)picolinate]: the pest or weed control at 140 g/ha was 0 to 29% under setting [1]; 0 to 29% under setting [2]; 0 to 29% under setting [3]; 0 to 29% under setting [4]; 0 to 29% under setting [5]; 0 to 29% under setting [6]. In addition, the pest or weed control at 140 g/ha under setting [7] lay within 0 to 29%; the pest or weed control at 140 g/ha under setting [8] fell in the range of 0 to 29%; the pest or weed control at 140 g/ha under setting [9] is 0 to 29%; the pest or weed control at 140 g/ha under setting [10] is 0 to 29%; the pest or weed control at 140 g/ha under setting [11] lay in the range of 0 to 29%; the pest or weed control at 140 g/ha under setting [12] fell in the range of 0 to 29%. The pest or weed control at 140 g/ha lay in the range of 0 to 29% under setting [13], 0 to 29% under setting [14] and 0 to 29% under setting [15].

For the compound `COC(=O)c1nc(-c2cc3c(cc2Cl)OC(F)(F)O3)ncc1Cl` [F232, Methyl 5-chloro-2-(6-chloro-2,2-difluorobenzo[d][1,3]dioxol-5-yl)pyrimidine-4-carboxylate], the pest or weed control at 140 g/ha is, setting by setting: under setting [1], 75 to 84%; under setting [2], 95 to 100%; under setting [3], 45 to 59%; under setting [4], 0 to 29%; under setting [5], 75 to 84%; under setting [6], 85 to 94%. In addition, the pest or weed control at 140 g/ha is, setting by setting: under setting [7], 45 to 59%; under setting [8], 45 to 59%; under setting [9], 0 to 29%; under setting [10], 85 to 94%; under setting [11], 95 to 100%; under setting [12], 95 to 100%. For the same compound, the pest or weed control at 140 g/ha is 60 to 74% under setting [13], 0 to 29% under setting [14] and 0 to 29% under setting [15].

On to `COC(=O)c1nc(-c2ccc3c(c2C)OC(F)(F)O3)c(F)cc1Cl` [F233, Methyl 3-chloro-6-(2,2-difluoro-4-methylbenzo[d][1,3]dioxol-5-yl)-5-fluoropicolinate], for which the pest or weed control at 140 g/ha was in the range of 45 to 59% under setting [1]; 95 to 100% under setting [2]; 85 to 94% under setting [3]; 0 to 29% under setting [4]; 85 to 94% under setting [5]; 85 to 94% under setting [6]. The pest or weed control at 140 g/ha under setting [7] was in the range of 45 to 59%; the pest or weed control at 140 g/ha under setting [8] lay in the range of 60 to 74%; the pest or weed control at 140 g/ha under setting [9] was in the range of 75 to 84%; the pest or weed control at 140 g/ha under setting [10] fell in the range of 95 to 100%; the pest or weed control at 140 g/ha under setting [11] lay in the range of 95 to 100%; the pest or weed control at 140 g/ha under setting [12] is 95 to 100%. For the same compound, the pest or weed control at 140 g/ha reads like this: under setting [13], 95 to 100%; under setting [14], 45 to 59%; under setting [15], 45 to 59%.
